Data as given in patent publication US6514946B1, “Macrolide antibiotics and treatment and prophylaxis of pasteurellosis using the same” (Zaidan Hojin Biseibutsu Kagaku Kenkyu Kai, priority 1999, dated 2003).
≈ marks a conversion by molar mass, not a printed value.

How the values were obtained:
Ureaplasma = experiment: Bacteria separation test from nasal cavity swab; type: in vivo, cattle
[1] = system: Past haemolytica BAPO103 S801; experiment: Minimum inhibition concentration (MIC), agar double dilution method; type: cell-based, Pasteurella haemolytica; details: Mannheimia haemolytica, BAPO103S801; Past haemolytica BAPO103 S801, strain from poultry; BHI agar; read-out: MIC
In short: (§1)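 Following the standard Japan Society of Chemotherapy procedure, MICs are determined by agar double dilution. Mueller Hinton medium serves for the non-Pasteurella bacteria, whereas Pasteurella gets brain heart infusion agar.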

P. haemolytica = experiment: Bacteria separation test from nasal cavity swab; type: in vivo, cattle
[2] = system: P. haemolytica 63-39 intraperitoneally infected mice; experiment: Antiinfective test on infected mice
P. haemolytica 63-39 = experiment: Sensitivity (MIC), agar plate dilution method; details: Mannheimia haemolytica, 6339
[3] = system: Past. multocida BSPO302 No. 6; experiment: Minimum inhibition concentration (MIC), agar double dilution method; type: cell-based, Pasteurella multocida; details: Pasteurella multocida, BSPO302NO.6; Past. multocida BSPO302 No. 6, strain from a pig; BHI agar; read-out: MIC
In short: as §1

[4] = system: Past. multocida BOPO305 M-17; experiment: as above; type: cell-based, Pasteurella multocida; details: Pasteurella multocida, BOPO305M17; Past. multocida BOPO305 M-17, strain from a sheep; BHI agar; read-out: MIC
In short: as §1

M. bovis = type: in vivo, cattle; details: nasal cavity swab
S. aureus FDA209P = experiment: Minimum inhibition concentration (MIC), agar double dilution method; type: cell-based, Staphylococcus aureus; details: Staphylococcus aureus, Mueller hinton agar, read-out: MIC
In short: (§2)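 Method: Japan Society of Chemotherapy standard, agar double dilution. Medium: Mueller Hinton agar for the listed strains. Exception: Pasteurella on BHI agar.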

P. multocida = experiment: Bacteria separation test from nasal cavity swab; type: in vivo, cattle
[5] = system: S. aureus Smith (virulent strain); experiment: microbe, parasite or virus in culture; type: cell-based, Staphylococcus aureus; details: Staphylococcus aureus
In short: (§3)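 Compounds were serially double-diluted into Mueller Hinton agar, following the Japan Society of Chemotherapy standard, and the test strains were then grown on it. Pasteurella alone was tested on brain heart infusion agar.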

[6] = system: bovine bacterial pneumonia (Mycoplasma, Ureaplasma and Pasteurella); experiment: Clinical test against bovine bacterial pneumonia; type: in vivo, cattle; parameters: Average clinical score: scale not given here
From the text: Test 5: Clinical Test Against Bovine Bacterial Pneumonia
In this test, each drug was subcutaneously administered to cattle suffering from bacterial pneumonia (infectious diseases with Mycoplasma, Ureaplasma and Pasteurella), respectively, and the clinical effect of P-MT was compared with those of tilmicosin and C-9.
Tests are made on 17 case of one to two-month-old Holstein cattle (weight 56 to 101 kg) suffering from bacterial pneumonia caused by single or mixed infection of Pasteurella, Mycoplasma, Ureaplasma and Haemophilus (6 animals for each of P-MT and C-9 and 5 animals for tilmicosin). The drug was subcutaneously administered to the animals once a day in an amount of 10 mg/kg.
Three calves showing a similar degree of symptoms at the start of the test were arranged in one group. Each subject of the same group was respectively tested with one of the above three compounds. Ailing calves were successively grouped when being available.
Clinical findings, based on the daily observation from the time of the administration through the 5th day of the trial, were scored on each item according to the criteria in the table below. The clinical efficacy of the compounds was judged on the 5th day.
As to judgment based on the clinical symptoms, cases which could be judged among each group were classified into remarkably effective (85 to 100), effective (70 to under 85), a little effective (50 to under 70) and infective (under 50) according to the following improvement rate by clinical scores, and after summing up, the following effective rate was calculated, the difference in the effective rate among the groups was determined using a statistical method, and thus effectivity was judged. [formula]

E. coli K-12 R-5 = experiment: Minimum inhibition concentration (MIC), agar double dilution method; type: cell-based, Escherichia coli; details: Escherichia coli, K12R5, Mueller hinton agar, read-out: MIC
In short: as §2

[7] = system: Enterobacter aerogenes ATCC13048; experiment: as above; type: cell-based; details: Klebsiella aerogenes, Mueller hinton agar, read-out: MIC
In short: as §2

[8] = system: Pasteurella haemolytica BBPO101 N791; experiment: as above; type: cell-based; details: Mannheimia haemolytica, BBPO101N791
In short: as §3

Serratia marcescens = experiment: as above; type: cell-based; details: Mueller hinton agar, read-out: MIC
In short: as §2

[9] = system: Bacillus subtilis NRRL B-558; experiment: as above; type: cell-based; details: Bacillus subtilis, NRRLB558
In short: as §3

[10] = system: Staphylococcus aureus 193; experiment: as above; type: cell-based; details: Mueller hinton agar, read-out: MIC
In short: as §2

[11] = system: Shigella dysenteriae JS11910; experiment: as above; type: cell-based; details: Shigella dysenteriae, JS11910
In short: as §3

Escherichia coli NIHJ = experiment: as above; type: cell-based; details: Mueller hinton agar, read-out: MIC
In short: as §2

[12] = system: Micrococcus luteus PCI1001; experiment: as above; type: cell-based; details: Mueller hinton agar, read-out: MIC
In short: as §2

[13] = system: Salmonella enteritidis 1891; experiment: as above; type: cell-based; details: Salmonella enterica, Mueller hinton agar, read-out: MIC
In short: as §2

[14] = system: Klebsiella pneumoniae PCI602; experiment: as above; type: cell-based; details: Mueller hinton agar, read-out: MIC
In short: as §2

Proteus vulgaris OX19 = experiment: as above; type: cell-based; details: Mueller hinton agar, read-out: MIC
In short: as §2

H. somnus = experiment: Bacteria separation test from nasal cavity swab; type: in vivo, cattle
[15] = before administration (baseline)

`CC[C@H]1OC(=O)C[C@@H](O)[C@H](C)[C@@H](O[C@@H]2O[C@H](C)C(O)C(N(C)C)C2O)[C@@H](CCN2CC(C)CC(C)C2)C[C@@H](C)C(=O)/C=C/C(C)=C/[C@@H]1CO[C@@H]1OC(C)C(O)[C@@H](OC)C1OC` (stereo partly shown) [Tilmicosin, tilmicosin] was tested, and the “Separation rate (%) at completion (number of animal)” value (shortened to “Separation rate (%) at completion”) (Ureaplasma; at completion) was 60 (3/5) % (number of animal), the “Separation rate (%) before administration (number of animal)” value (Ureaplasma; [15]) was 100 (5/5) % (number of animal) and the MIC [1] was 50 mg/L (≈ 57.5 µM). The “Separation rate (%) at completion” value (P. haemolytica; at completion) was 20 (1/5) % (number of animal), the “Separation rate (%) before administration (number of animal)” value (P. haemolytica; [15]) was 20 (1/5) % (number of animal) and the ED50 ([2]; Mannheimia haemolytica, in Mus musculus, sc, 168 h, read-out: ED50 (95% confidence limit)) was 26.2 mg/kg. For the same compound, the “Surviving number after 7 days/test number” value ([2]; dose 1 mg/kg subcutaneous one hour after infection) was 0/10, the “Surviving number after 7 days/test number” value ([2]; dose 5 mg/kg subcutaneous one hour after infection) was 0/10 and the “Surviving number after 7 days/test number” value ([2]; dose 10 mg/kg subcutaneous one hour after infection) was 3/10. For the same compound, the “Surviving number after 7 days/test number” value ([2]; dose 20 mg/kg subcutaneous one hour after infection) was 4/10, the “Surviving number after 7 days/test number” value ([2]; dose 30 mg/kg subcutaneous one hour after infection) was 5/10 and the ED90 ([2]; probit method from surviving numbers after 7 days, subcutaneous) was 102.1 mg/kg. It also gave an MIC (P. haemolytica 63-39) of 3.13 mg/L (≈ 3.6 µM), an MIC [3] of 6.25 mg/L (≈ 7.19 µM) and an MIC [4] of 6.25 mg/L (≈ 7.19 µM). The “Separation rate (%) at completion” value (M. bovis; at completion) was 40 (2/5) % (number of animal), the “Separation rate (%) before administration (number of animal)” value (M. bovis; [15]) was 40 (2/5) % (number of animal) and the MIC (S. aureus FDA209P) was 0.39 mg/L (≈ 0.449 µM). The “Separation rate (%) at completion” value (P. multocida; at completion) was 80 (4/5) % (number of animal), the “Separation rate (%) before administration (number of animal)” value (P. multocida; [15]) was 100 (5/5) % (number of animal) and the MIC [5] was 1.56 mg/L (≈ 1.79 µM). For the same compound, the Average clinical score ([6]; 1 day after completion of administration, cattle, 10 mg/kg subcutaneous) was 3.5, the Average clinical score ([6]; 2 days after completion of administration) was 2.8 and the Average clinical score ([6]; 3 days after completion of administration) was 2.2. For the same compound, the Average clinical score ([6]; 4 days after completion of administration) was 2.7, the “Effective rate (%) in clinical effect” value ([6]; (remarkably effective + effective case number)/test case number × 100) was 40% and the “Average symptomatic improvement rate (%)” value ([6]; (score before − score after administration)/score before × 100) was 65.6%. The Average clinical score ([6]; at administration (baseline), cattle, 10 mg/kg subcutaneous) was 6.5, the “A little effective (%) (case number)” value ([6]; improvement rate 50 to under 70) was 20 (1) % (case number) and the “Effective (%) (case number)” value ([6]; improvement rate 70 to under 85) was 0 (0) % (case number). The “Remarkably effective (%) (case number)” value ([6]; improvement rate 85 to 100) was 40 (2) % (case number), the “Ineffective (%) (case number)” value ([6]; improvement rate under 50) was 40 (2) % (case number) and the MIC (E. coli K-12 R-5) was greater than 100 mg/L. The MIC [7] was 100 mg/L (≈ 115 µM), the MIC [8] was 1.56 mg/L (≈ 1.79 µM) and the MIC (Serratia marcescens) was greater than 100 mg/L. The MIC [9] was 1.56 mg/L (≈ 1.79 µM), the MIC [10] was 0.39 mg/L (≈ 0.449 µM) and the MIC [11] was 100 mg/L (≈ 115 µM). It also gave an MIC (Escherichia coli NIHJ) of 25 mg/L (≈ 28.8 µM), an MIC [12] of 0.2 mg/L (≈ 0.23 µM) and an MIC [13] of 6.25 mg/L (≈ 7.19 µM). For the same compound, the MIC [14] was 25 mg/L (≈ 28.8 µM), the MIC (Proteus vulgaris OX19) was 100 mg/L (≈ 115 µM) and the “Separation rate (%) at completion” value (H. somnus; at completion) was 0 (0/5) % (number of animal). The “Separation rate (%) before administration (number of animal)” value (H. somnus; [15]) was 0 (0/5) % (number of animal).
